{"source": "patent US20220062299A1", "about": "“USE OF GLUCOCORTICOID STEROIDS IN PREVENTING AND TREATING CONDITIONS OF MUSCLE WASTING, AGING AND METABOLIC DISORDER” (NORTHWESTERN UNIVERSITY, priority 2018, published 2022)", "key": {"[1]": {"tested_on": "mdx mice", "experiment": "Metabolic cages (indirect calorimetry), mdx mice, 40 weeks", "assay_type": "in vivo, mouse", "conditions": "weekly prednisone", "protocol": "Metabolic cages. VO2 (ml/h/kg) and energy expenditure to body weight (kcal/h/kg) were assessed via indirect calorimetry using the TSE Automated Phenotyping System PhenoMaster (TSE system, Chesterfield, Mo.). Mice were singly housed in their home cages in an enclosed environmental chamber (part of the TSE system) with controlled temperature and light/dark cycles (12 hours each; 6 AM-6 PM). […] Measurements of CO2 production and O2 consumption occurred using the attached gas analyzer to assess energy expenditure. In addition, physical activity in three dimensions was monitored via infrared beam breaks through frames mounted on the perimeter of the metabolic cages. Enrichment items were omitted to avoid insulation from sensors and infrared light beam path obstruction. Results are expressed as 12 hour-period values (light/dark; 10 values per mouse). Metabolic cage assays were conducted blinded to treatment groups."}, "[2]": {"tested_on": "Wildtype (WT) mice fed high-fat chow", "experiment": "Diet-induced obesity, wildtype mice on high-fat chow, 8 weeks", "assay_type": "in vivo, mouse", "protocol": "Glucose was measured in blood (first drop from tail venipuncture) or serum (5 μl of 1:2 dilution) with an AimStrip Plus glucometer system (Germaine Laboratories, San Antonio, Tex.) and expressed as mg/dl values. Lactate was measured in blood (second drop from tail venipuncture) or serum (5 μl of 1:2 dilution) with a Lactate Plus reader (Nova Biomedical, Waltham, Mass.) and expressed as mM values. Fasting glycemia was measured in mice after 4 hours fasting (7 AM-11 AM). Glucose, insulin and pyruvate tolerance tests were conducted after 4 hours fasting in individual cages immediately after baseline fasting glucose monitoring. Mice were injected with either 1 g/kg glucose (#D8375-1 g; Millipore Sigma, St Louis, Mo.), or 0.5 U/kg insulin (#12585014; Thermo Fisher, Waltham, Mass.), or 2.5 g/kg pyruvate (#P5280-25 g; Millipore Sigma, St Louis, Mo.) in 200 μl intraperitoneal injections, and glucose was then monitored by tail venipuncture at 10 min, 20 min, 30 min, 60 min, 120 min after injection. All glucose and pyruvate tolerance tests were conducted blinded to treatment groups.\nMRI scan. Magnetic resonance imaging (MRI) scans to determine fat and lean mass ratios (% of total body weight) were conducted in non-anesthetized, non-fasted mice at 2 PM using the EchoMRI-100H Whole Body Composition analyzer (EchoMRI, Houston, Tex.). Mice were weighed immediately prior to MRI scan. Before each measurement session, system was calibrated using the standard internal calibrator tube (canola oil). Mice were typically scanned in sample tubes dedicated to mice comprised between 20 g and 40 g body mass. Data were collected through built-in software EchoMRI version 140320. Data were analyzed when hydration ratio >85%. MRI scans were conducted blinded to treatment groups.\nMuscle function, whole-body plethysmography, echocardiography. Forelimb grip strength was monitored using a meter (Cat #1027SM; Columbus Instruments, Columbus, Ohio) blinded to treatment groups. Animals performed ten pulls with 5 seconds rest on a flat surface between pulls. Immediately before sacrifice, in situ tetanic force from tibialis anterior muscle was measured using a Whole Mouse Test System (Cat #1300A; Aurora Scientific, Aurora, ON, Canada) with a 1N dual-action lever arm force transducer (3000-LR, Aurora Scientific, Aurora, ON, Canada) in anesthetized animals (0.8 I/min of 1.5% isoflurane in 100% O2). Tetanic isometric contraction was induced with following specifications: initial delay, 0.1 sec; frequency, 200 Hz; pulse width, 0.5 msec; duration, 0.5 sec; using 100 mA stimulation (Quattrocelli et al., 2015). Length was adjusted to a fixed baseline of 50 mN resting tension for all muscles/conditions. Fatigue analysis was conducted by repeating tetanic contractions every 10 seconds until complete exhaustion of the muscle (50 cycles). Time of contraction was assessed as time to max tetanic value within the 0.0-0.5 sec range of each tetanic contraction, while time of relaxation was assessed as time to 90% min tetanic value within the 0.5-0.8 sec range of every tetanus. […] Data was recorded for a total of 15 minutes broken into 3 consecutive 5-minute periods. […] Cardiac function was assessed by echocardiography, which was conducted under anesthesia (0.8 L/min of 1.5% vaporized isoflurane in 100% O2) on mice between 2 and 5 days before sacrifice. […]"}}, "data": [{"smiles": "C[C@]12C=CC(=O)C=C1CC[C@@H]1[C@@H]2C(=O)C[C@@]2(C)[C@H]1CC[C@]2(O)C(=O)CO", "note": "[prednisone, Prednisone]", "values": [{"measurement": "oxygen consumption (VO2) and energy expenditure during nocturnal activity", "setting": "[1]", "value": "increased"}, {"measurement": "gain of hyperglycemia (fasting blood glucose over time)", "setting": "[2]; weekly prednisone", "value": "reduced"}, {"measurement": "lean mass retention", "setting": "[2]; weekly prednisone", "value": "improved"}, {"measurement": "gain of body weight and fat mass", "setting": "[2]; weekly prednisone 1 mg/kg i.p., vs vehicle", "value": "slightly but significantly reduced"}, {"measurement": "body-wide glucose homeostasis (glucose and insulin tolerance tests)", "setting": "[2]; weekly prednisone, endpoint", "value": "improved"}, {"measurement": "grip strength, tetanic force production and aerobic exercise capacity", "setting": "[2]; weekly prednisone, endpoint", "value": "improved"}]}]}
